In patent US20100227853A1, “INHIBITORS OF CYCLIC AMP PHOSPHODIESTERASES” (Trustees of Boston College, priority 2008, published 2010):
Where two headings read alike, the source gives them in different places.

Key:
PDE4B3 = target: T1, PDE4B3 (Mus musculus, UniProt Q8VBU5); assay: 5FOA growth assay in fission yeast strain expressing PDE4B3; type: cell-based, Murine; conditions: for Composite Z score, PDE4B3: high throughput 5FOA growth screen
T1 construct: targets used in the assays are full-length proteins (as opposed to simply the catalytic domain); expressed in transfected cells; host or cells: Schizosaccharomyces pombe, PDE gene integrated in place of cgs2
T1 sequence (Q8VBU5 1-721): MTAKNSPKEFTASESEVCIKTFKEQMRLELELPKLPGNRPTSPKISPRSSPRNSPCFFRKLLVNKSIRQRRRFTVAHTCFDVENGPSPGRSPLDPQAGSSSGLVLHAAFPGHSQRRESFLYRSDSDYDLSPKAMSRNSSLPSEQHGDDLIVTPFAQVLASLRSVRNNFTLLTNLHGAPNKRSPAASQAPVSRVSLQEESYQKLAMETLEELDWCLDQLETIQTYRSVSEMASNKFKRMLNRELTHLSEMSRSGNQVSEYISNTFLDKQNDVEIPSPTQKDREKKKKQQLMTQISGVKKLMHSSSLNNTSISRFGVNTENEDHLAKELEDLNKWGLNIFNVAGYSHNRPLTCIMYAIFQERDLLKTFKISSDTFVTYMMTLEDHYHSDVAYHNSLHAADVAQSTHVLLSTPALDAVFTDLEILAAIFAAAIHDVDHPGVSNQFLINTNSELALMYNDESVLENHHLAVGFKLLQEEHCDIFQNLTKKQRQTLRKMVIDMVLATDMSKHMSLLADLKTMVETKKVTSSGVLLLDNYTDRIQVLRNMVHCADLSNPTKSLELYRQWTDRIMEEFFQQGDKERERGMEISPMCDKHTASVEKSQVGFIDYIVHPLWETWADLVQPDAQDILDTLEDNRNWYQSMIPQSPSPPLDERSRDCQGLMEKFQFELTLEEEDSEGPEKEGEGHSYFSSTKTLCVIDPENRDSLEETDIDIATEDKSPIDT
Summary of the method: (§1)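 Fission yeast strains carrying mouse PDE4A1 or PDE4B3 and an fbp1-ura4 reporter were pregrown in EMM with 0.5–2.5 mM cAMP, then seeded at 0.5–4×10^5 cells/ml in 5FOA medium with compound. Growth was read as OD600 after 48 h at 30° C; composite Z scores were derived.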

PDE4A1 = target: T2, PDE4A1 (Mus musculus, UniProt O89084); assay: 5FOA growth assay (high throughput screen, ED50) in fission yeast strain expressing PDE4A1; type: cell-based; conditions: for 1 Assay (20 uM) 4A1: PDE 4A1; for Composite Z score, PDE4A1: high throughput 5FOA growth screen, greater than 8.53 = statistically-significant inhibitor; for EC50: OD600 0.6
T2 construct: targets used in the assays are full-length proteins (as opposed to simply the catalytic domain); expressed in transfected cells; host or cells: Schizosaccharomyces pombe, PDE gene integrated in place of cgs2
T2 sequence (O89084 1-610 isoform O89084-2): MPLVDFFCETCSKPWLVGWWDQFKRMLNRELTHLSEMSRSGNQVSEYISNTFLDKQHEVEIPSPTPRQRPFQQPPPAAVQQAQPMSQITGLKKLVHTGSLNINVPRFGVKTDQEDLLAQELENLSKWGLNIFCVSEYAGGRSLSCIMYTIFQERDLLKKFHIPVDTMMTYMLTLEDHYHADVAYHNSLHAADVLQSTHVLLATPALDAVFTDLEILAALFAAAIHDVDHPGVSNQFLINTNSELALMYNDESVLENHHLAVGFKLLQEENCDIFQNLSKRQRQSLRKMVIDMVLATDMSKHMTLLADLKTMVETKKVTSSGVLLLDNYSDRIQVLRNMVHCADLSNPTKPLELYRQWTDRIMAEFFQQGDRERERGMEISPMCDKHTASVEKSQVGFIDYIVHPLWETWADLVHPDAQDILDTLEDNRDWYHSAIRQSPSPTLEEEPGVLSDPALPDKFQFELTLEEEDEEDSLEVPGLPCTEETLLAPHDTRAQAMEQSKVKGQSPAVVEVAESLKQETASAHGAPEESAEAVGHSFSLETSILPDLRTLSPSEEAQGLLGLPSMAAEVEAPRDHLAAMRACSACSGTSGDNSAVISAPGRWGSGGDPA
Summary of the method: as §1

Row | Compound | Composite Z score, PDE4B3 (PDE4B3) | Composite Z score, PDE4A1 (PDE4A1) | further results
1 | c1ccc(CCn2c3ccccc3c3nc4ccccc4nc32)cc1 [2019, G03] |  |  | 1 Assay (20 uM) 4B3 (PDE4B3; PDE 4B3): 83.22 ND ND ND ND; 1 Assay (20 uM) 4A1 (PDE4A1): 36.37 ND ND ND ND
2 | CC(C)CC(Nc1ncnc2sc3c(c12)CCC3)C(=O)O (stereo not drawn) [Compound 2012H20] | 0.1698 | 0.407 | 
3 | CNc1nc(=S)[nH]c2sc3c(c12)CCCC3 [2054 E08] | 0.2798 | −1.088 | 
4 | C=CCn1c2ccc(Br)cc2c2nc3ccccc3nc21 [2017, C18] |  |  | 1 Assay (20 uM) 4B3 (PDE4B3; PDE 4B3): 56.91 ND ND ND ND; 1 Assay (20 uM) 4A1 (PDE4A1): 49.17 ND ND ND ND
5 | Cc1c(C(=O)Nc2ccc(F)cc2F)sc2ncnc(N3CCC(C)CC3)c12 [BC58] | 78.927 | 34.335 | 
6 | CCCCn1c2ccccc2c2nc3ccccc3nc21 [2013, I20] |  |  | 1 Assay (20 uM) 4B3 (PDE4B3; PDE 4B3): 0.29 ND ND ND ND; 1 Assay (20 uM) 4A1 (PDE4A1): 80.55 ND ND ND ND
7 | Cc1nc(NCCc2ccccc2)c2c3c(sc2n1)CCCC3 [Compound 2008G09] | 0.0156 | 0.1429 | 
8 | N#Cc1sc2sc(C#N)c(-c3ccco3)c2c1N [Compound 30] |  |  | 2 Assay (2 uM), 4B3 (PDE4B3): 5.21; 1 Assay (20 uM) 4B3 (PDE4B3): 4.67; 2 Assay (2 uM), 4A1 (PDE4A1): 4.56
9 | CCOC(=O)c1sc2nc(Cc3ccccc3)nc(NCCC3CCCCC3)c2c1C [Compound 2040F07] | 5.0875 | 3.8961 | 
10 | CCC(C)NC(=O)c1sc2nc(C)nc(N(C)c3ccc(C(C)C)cc3)c2c1C (stereo not drawn) [Compound 2041K04] | −0.456 | 11.659 | 
11 | CC(C)Cn1c2ccc(Br)cc2c2nc3ccccc3nc21 [2015, L04] |  |  | 1 Assay (20 uM) 4B3 (PDE4B3; PDE 4B3): 1.17 ND ND ND ND; 1 Assay (20 uM) 4A1 (PDE4A1): 13.51 ND ND ND ND
12 | COC(=O)C1=C(C)N(c2ccccc2Cl)C(=O)/C1=C\c1cccs1 [Compound 27] |  |  | 2 Assay (2 uM), 4B3 (PDE4B3): 22.05; 1 Assay (20 uM) 4B3 (PDE4B3): −0.26; 2 Assay (2 uM), 4A1 (PDE4A1): 17.41
13 | Cc1nc(N2CCC(C)CC2)c2c(C)c(C(=O)N3CCN(c4ccc(F)cc4)CC3)sc2n1 [Compound 2040N10] | 3.1975 | 12.024 | 
14 | COc1ccccc1CNC(=O)c1sc2ncnc(N3CCN(c4ccccc4F)CC3)c2c1C [2041 E21] | −0.408 | 1.9156 | 

Now from value to compound, other results behind:

Row | Composite Z score, PDE4B3 (PDE4B3) | Composite Z score, PDE4A1 (PDE4A1) | Compound | further results
15 | 42.416 | 50.594 | CCC1CCc2c(sc3ncnc(N4CCOCC4)c23)C1 (stereo not drawn) [BC33] | EC50 (PDE4A1; value marked (m), read-out: ED50 for 5FOA growth assays, PDE4A1 (m)): 23 µM; EC50 (PDE4A1; value marked (r), read-out: ED50 for 5FOA growth assays, PDE4A1 (r)): 28 µM
16 | −0.211 | 2.3863 | CCNc1nc(SCc2ccc(Cl)cc2)nc2sc3c(c12)CCN(C)C3 [Compound 2054P05] | 
